Patent US12071425B2 (Genentech, Inc., priority 2018, dated 2024)
Where a name gives a salt, the structure may show the parent alone.

The compounds below were run against kinase domain of IRE1 alpha (His-tagged kinase dead construct KR, AA G547-L977, D688N) (Homo sapiens (Human), UniProt O75460, D688N) (assay: IRE1α TR-FRET competition binding assay). Settings: competition with Kinase Tracer 236, 0.1 μM; one hour at room temperature.
Outline: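 Compound displacement of an ATP-site fluorescent tracer (0.1 μM final) measured by TR-FRET after 1 h at room temperature. Protein, a His-tagged D688N kinase/RNase construct from Sf9 cells (0.006 μM final), was pre-bound 1 h at 4° C to Eu anti-His antibody (0.002 μM) in pH 7.5 HEPES buffer.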

kinase domain of IRE1 alpha (His-tagged kinase dead construct KR, AA G547-L977, D688N), sequence (O75460 547-977 D688N): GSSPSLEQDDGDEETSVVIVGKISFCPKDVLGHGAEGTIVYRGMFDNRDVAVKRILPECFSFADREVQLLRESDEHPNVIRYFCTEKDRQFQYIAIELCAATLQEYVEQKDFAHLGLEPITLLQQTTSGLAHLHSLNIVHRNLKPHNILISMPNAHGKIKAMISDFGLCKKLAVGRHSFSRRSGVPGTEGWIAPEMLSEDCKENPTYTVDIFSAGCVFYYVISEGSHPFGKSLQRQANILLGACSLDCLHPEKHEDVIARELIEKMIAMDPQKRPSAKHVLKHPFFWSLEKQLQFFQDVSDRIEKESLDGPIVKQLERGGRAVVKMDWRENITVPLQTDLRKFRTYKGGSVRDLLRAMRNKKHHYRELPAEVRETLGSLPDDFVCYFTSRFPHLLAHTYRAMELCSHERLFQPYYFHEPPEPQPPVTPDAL

IC50 [nM] | SMILES
410 | CN=S(=O)(Cc1ccccc1)Nc1ccc(Oc2ncccc2-c2ccnc(N[C@H]3CCCNC3)n2)c(F)c1F (stereo partly drawn) [Compound 273, N-(2,3-difluoro-4-((3-(2-(((S)-piperidin-3-yl)amino)pyrimidin-4-yl)pyridin-2-yl)oxy)phenyl)-N′-methyl-1-phenylmethanesulfonimidamide]
400 | CN=S(=O)(Cc1ccccc1)Nc1ccc(Oc2ncccc2-c2ccnc(N[C@H]3CCCNC3)n2)c(F)c1F (stereo partly drawn) [Compound 274, N-(2,3-difluoro-4-((3-(2-(((S)-piperidin-3-yl)amino)pyrimidin-4-yl)pyridin-2-yl)oxy)phenyl)-N′-methyl-1-phenylmethanesulfonimidamide]
0.23 | C[C@@]1(F)CNC[C@@H](Nc2nccc(-c3cccnc3Oc3cc(F)c(NS(=O)(=O)Cc4ccccc4F)c(F)c3F)n2)C1 [Compound 275, 1-(2-Fluorophenyl)-N-(2,3,6-trifluoro-4-((3-(2-(((3S,5S)-5-fluoro-5-methylpiperidin-3-yl)amino)pyrimidin-4-yl)pyridin-2-yl)oxy)phenyl)methanesulfonamide]
180 | O=C(Nc1ccc(Oc2ncccc2-c2ccnc(N[C@@H]3CNC[C@@H](F)C3)n2)cc1)Nc1cccc(C(F)(F)F)c1 [Compound 276, 1-(4-((3-(2-(((3S,5S)-5-Fluoropiperidin-3-yl)amino)pyrimidin-4-yl)pyridin-2-yl)oxy)phenyl)-3-(3-(trifluoromethyl)phenyl)urea]

The next lines start with the compound.

SMILES | IC50 [nM]
CN(C)S(=O)(=O)Nc1c(F)cc(Oc2ncccc2-c2ccnc(N[C@@H]3CNC[C@@H](F)C3)n2)c(F)c1F [Compound 266, 4-(2-(4-(Dimethylsulfamoylamino)-2,3,5-trifluoro-phenoxy)-3-pyridyl)-2-(((3S,5S)-5-fluoro-3-piperidyl)amino)pyrimidine] | 8.6
O=S(=O)(CCC1CC1)Nc1c(F)cc(Oc2ncccc2-c2ccnc(N[C@@H]3CNC[C@@H](F)C3)n2)c(F)c1F [Compound 267, 2-Cyclopropyl-N-(2,3,6-trifluoro-4-((3-(2-(((3S,5S)-5-fluoropiperidin-3-yl)amino)pyrimidin-4-yl)pyridin-2-yl)oxy)phenyl)ethane-1-sulfonamide] | 2.2
CCC(F)(F)CS(=O)(=O)Nc1c(F)cc(Oc2ncc(F)cc2-c2ccnc(N[C@@H]3CNC[C@@H](F)C3)n2)c(F)c1F [Compound 268, 2,2-Difluoro-N-(2,3,6-trifluoro-4-((5-fluoro-3-(2-(((3S,5S)-5-fluoropiperidin-3-yl)amino)pyrimidin-4-yl)pyridin-2-yl)oxy)phenyl)butane-1-sulfonamide] | 1.1
CCN(C)S(=O)(=O)Nc1c(F)cc(Oc2ncccc2-c2ccnc(N[C@@H]3CNC[C@@H](F)C3)n2)c(F)c1F [Compound 269, 4-(2-(4-((Ethyl(methyl)sulfamoyl)amino)-2,3,5-trifluoro-phenoxy)-3-pyridyl)-2-(((3S,5S)-5-fluoro-3-piperidyl)amino)pyrimidine] | 1.1
CCC(F)(F)CS(=O)(=O)Nc1c(F)cc(Oc2nc(C)ccc2-c2ccnc(N[C@@H]3CNC[C@@H](F)C3)n2)c(F)c1F [Compound 270, 2,2-Difluoro-N-(2,3,6-trifluoro-4-((3-(2-(((3S,5S)-5-fluoropiperidin-3-yl)amino)pyrimidin-4-yl)-6-methylpyridin-2-yl)oxy)phenyl)butane-1-sulfonamide] | 0.54
O=S(=O)(CC1CC1(F)F)Nc1c(F)cc(Oc2ncccc2-c2ccnc(N[C@@H]3CNC[C@@H](F)C3)n2)c(F)c1F (stereo partly drawn) [Compound 271, 1-(2,2-Difluorocyclopropyl)-N-(2,3,6-trifluoro-4-((3-(2-(((3S,5S)-5-fluoropiperidin-3-yl)amino)pyrimidin-4-yl)pyridin-2-yl)oxy)phenyl)methanesulfonamide] | 3.6
CN(C)[C@H]1CC[C@H](Nc2nccc(-c3cccnc3Oc3cc(F)c(NS(=O)(=O)Cc4ccccc4)c(F)c3F)n2)CC1 [Compound 272, N-(4-((3-(2-(((1r,4r)-4-(Dimethylamino)cyclohexyl)amino)pyrimidin-4-yl)pyridin-2-yl)oxy)-2,3,6-trifluorophenyl)-1-phenylmethanesulfonamide hydrochloride] | 0.15
